{"source": "ChEMBL document CHEMBL1201862", "about": "“PubChem BioAssay data set” (2004)", "key": {"[1]": {"target": "T1, High affinity choline transporter 1 (Homo sapiens, UniProt Q9GZV3)", "T1 sequence (Q9GZV3 whole entry)": "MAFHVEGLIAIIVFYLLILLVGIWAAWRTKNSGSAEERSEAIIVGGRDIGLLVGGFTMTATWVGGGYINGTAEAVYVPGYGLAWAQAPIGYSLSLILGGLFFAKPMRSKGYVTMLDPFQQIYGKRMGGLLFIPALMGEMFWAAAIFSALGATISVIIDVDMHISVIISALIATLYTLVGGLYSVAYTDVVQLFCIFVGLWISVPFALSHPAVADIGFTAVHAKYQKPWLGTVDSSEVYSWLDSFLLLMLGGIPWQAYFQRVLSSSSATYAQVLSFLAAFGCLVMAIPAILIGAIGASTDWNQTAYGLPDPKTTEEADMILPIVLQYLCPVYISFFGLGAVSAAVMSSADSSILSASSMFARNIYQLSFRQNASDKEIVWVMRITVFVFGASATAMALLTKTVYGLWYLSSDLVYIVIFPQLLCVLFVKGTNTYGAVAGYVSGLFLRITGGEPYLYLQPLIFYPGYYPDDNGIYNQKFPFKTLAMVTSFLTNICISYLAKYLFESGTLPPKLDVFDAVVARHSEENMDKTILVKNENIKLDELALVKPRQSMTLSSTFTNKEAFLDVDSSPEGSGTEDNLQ", "assay": "human choline transporter blockers, potency – cell-based, 5-point CRC, membrane potential dye, dose response (AID 504840)", "format": "functional"}, "[2]": {"tested_on": "Streptococcus sp. 'group A'", "assay": "Streptococcus pyogenes SK(-)GAS viability under kanamycin – luminescence, BacTiterGlo, confirmation, counter-screen for streptokinase expression inhibitor project, dose response (AID 1900)", "format": "functional, organism-based"}, "Streptococcus": {"tested_on": "Streptococcus", "assay": "GAS UMAA2166 growth inhibition – luminescence, BacTiterGlo, counter-screen for streptokinase expression inhibitor project, dose response (AID 1915);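 note: potency for reduction of bacterial viability or growth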", "format": "functional, organism-based"}, "[3]": {"target": "T2, Short transient receptor potential channel 4 (Mus musculus, UniProt Q9QUQ5)", "T2 sequence (Q9QUQ5 whole entry)": "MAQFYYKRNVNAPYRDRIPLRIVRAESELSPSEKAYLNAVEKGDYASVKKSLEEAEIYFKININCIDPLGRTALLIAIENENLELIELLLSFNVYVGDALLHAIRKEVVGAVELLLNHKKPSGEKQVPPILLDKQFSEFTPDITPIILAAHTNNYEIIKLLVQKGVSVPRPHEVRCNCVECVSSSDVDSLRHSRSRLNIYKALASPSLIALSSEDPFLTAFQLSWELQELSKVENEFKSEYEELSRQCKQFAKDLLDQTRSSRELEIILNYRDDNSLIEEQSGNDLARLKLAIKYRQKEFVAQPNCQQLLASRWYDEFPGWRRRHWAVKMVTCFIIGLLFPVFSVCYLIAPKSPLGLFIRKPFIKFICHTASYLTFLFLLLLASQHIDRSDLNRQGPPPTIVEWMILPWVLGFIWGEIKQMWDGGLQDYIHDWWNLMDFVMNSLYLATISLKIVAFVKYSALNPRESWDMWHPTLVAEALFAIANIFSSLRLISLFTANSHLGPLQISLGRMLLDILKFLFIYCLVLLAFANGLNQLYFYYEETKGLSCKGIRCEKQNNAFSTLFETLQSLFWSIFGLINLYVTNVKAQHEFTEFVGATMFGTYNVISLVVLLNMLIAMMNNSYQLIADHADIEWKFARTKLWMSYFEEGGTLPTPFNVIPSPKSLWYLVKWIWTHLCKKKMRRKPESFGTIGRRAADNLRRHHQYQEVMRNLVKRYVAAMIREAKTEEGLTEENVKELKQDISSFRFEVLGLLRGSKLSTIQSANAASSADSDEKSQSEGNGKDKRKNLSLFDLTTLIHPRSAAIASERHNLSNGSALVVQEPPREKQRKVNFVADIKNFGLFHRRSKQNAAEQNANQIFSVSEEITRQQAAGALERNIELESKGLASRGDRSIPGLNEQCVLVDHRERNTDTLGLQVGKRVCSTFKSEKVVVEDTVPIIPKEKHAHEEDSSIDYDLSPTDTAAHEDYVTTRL", "assay": "calcium entry via TRPC4 opening agents – cell-based, HEK293 TRPC4/mu-opioid, Fluo-4 calcium, dose response (AID 434937)", "format": "functional"}, "Vero [4]": {"tested_on": "Vero", "assay": "cells", "format": "functional, cell-based", "settings": "Chlorocebus sabaeus"}, "Vero [5]": {"tested_on": "Vero", "assay": "cells", "format": "functional", "settings": "Chlorocebus sabaeus"}, "[6]": {"target": "T3, Lysosomal acid glucosylceramidase (Homo sapiens, UniProt P04062)", "T3 sequence (P04062 whole entry)": "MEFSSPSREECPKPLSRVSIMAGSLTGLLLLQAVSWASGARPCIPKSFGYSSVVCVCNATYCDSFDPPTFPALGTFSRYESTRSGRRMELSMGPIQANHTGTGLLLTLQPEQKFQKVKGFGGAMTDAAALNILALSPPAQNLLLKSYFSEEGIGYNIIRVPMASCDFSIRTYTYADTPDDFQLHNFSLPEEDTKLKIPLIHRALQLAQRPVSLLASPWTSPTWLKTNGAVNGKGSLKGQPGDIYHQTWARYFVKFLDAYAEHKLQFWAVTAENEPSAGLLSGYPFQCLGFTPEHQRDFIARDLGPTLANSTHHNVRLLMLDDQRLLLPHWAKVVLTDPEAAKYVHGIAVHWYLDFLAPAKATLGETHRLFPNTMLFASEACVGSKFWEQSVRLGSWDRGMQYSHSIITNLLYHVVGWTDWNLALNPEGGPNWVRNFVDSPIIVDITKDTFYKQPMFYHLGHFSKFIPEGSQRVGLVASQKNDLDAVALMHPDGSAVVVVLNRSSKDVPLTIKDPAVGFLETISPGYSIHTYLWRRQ", "assay": "Dose response cell-based high throughput screening assay to identify enhancers of beta-glucosidase activity. [Related pubchem assays: 784 ]", "format": "functional"}, "[7]": {"target": "T4, Microphthalmia-associated transcription factor (Homo sapiens, UniProt O75030)", "T4 sequence (O75030 whole entry)": "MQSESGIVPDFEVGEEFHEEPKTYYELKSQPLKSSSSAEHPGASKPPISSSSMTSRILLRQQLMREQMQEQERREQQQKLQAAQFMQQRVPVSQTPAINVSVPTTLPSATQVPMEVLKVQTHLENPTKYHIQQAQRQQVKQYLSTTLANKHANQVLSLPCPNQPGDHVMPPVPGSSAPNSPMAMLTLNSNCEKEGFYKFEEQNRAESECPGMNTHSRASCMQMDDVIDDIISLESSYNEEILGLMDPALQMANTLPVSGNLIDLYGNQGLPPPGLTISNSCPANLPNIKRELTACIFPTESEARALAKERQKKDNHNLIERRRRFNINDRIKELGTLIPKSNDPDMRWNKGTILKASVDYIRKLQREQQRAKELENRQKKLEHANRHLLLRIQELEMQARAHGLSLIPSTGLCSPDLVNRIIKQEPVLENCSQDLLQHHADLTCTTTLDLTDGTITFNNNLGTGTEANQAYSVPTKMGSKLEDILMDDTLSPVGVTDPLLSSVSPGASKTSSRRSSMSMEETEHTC", "assay": "reducers of TRPM1 reporter luminescence, concentration series – cell-based, SK-MEL-5, cherry-picked, set 3, MITF inhibitor project, dose response (AID 493073);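 note: SK-MEL-5 melanoma cells with luciferase driven by the MITF target TRPM1 promoter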", "format": "functional"}, "[8]": {"target": "T5, Replicative DNA helicase DnaB (Mycobacterium tuberculosis, UniProt P9WMR3)", "T5 sequence (P9WMR3 whole entry)": "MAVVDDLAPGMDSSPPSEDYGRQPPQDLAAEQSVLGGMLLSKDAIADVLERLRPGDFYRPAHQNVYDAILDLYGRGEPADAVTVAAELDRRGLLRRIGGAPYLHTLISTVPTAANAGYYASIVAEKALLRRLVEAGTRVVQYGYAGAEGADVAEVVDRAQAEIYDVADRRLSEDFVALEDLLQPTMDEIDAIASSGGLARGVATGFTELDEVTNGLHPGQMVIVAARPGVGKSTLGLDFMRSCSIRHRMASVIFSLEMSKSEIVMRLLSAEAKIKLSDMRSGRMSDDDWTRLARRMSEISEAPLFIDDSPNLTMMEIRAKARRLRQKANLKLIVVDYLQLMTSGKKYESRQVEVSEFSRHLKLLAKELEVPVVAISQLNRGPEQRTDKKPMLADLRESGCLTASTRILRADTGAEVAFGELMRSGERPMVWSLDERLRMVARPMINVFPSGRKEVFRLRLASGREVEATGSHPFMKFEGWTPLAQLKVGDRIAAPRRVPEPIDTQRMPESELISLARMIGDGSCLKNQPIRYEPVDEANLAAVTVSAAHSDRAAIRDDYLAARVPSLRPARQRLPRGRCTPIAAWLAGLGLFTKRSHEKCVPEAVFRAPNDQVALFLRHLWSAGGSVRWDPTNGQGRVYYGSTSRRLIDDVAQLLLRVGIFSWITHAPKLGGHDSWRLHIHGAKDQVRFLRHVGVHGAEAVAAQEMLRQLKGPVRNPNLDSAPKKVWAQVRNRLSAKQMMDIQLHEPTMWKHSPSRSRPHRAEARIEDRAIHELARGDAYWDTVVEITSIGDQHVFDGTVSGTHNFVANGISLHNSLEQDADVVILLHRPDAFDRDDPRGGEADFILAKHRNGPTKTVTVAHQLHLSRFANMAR", "assay": "DnaB intein splicing inhibitors, dose response, biochemical, cell-free fluorescence (AID 449749)", "format": "functional"}, "Protein RecA": {"target": "T6, Protein RecA (Mycobacterium tuberculosis, UniProt P9WHJ3)", "T6 sequence (P9WHJ3 whole entry)": "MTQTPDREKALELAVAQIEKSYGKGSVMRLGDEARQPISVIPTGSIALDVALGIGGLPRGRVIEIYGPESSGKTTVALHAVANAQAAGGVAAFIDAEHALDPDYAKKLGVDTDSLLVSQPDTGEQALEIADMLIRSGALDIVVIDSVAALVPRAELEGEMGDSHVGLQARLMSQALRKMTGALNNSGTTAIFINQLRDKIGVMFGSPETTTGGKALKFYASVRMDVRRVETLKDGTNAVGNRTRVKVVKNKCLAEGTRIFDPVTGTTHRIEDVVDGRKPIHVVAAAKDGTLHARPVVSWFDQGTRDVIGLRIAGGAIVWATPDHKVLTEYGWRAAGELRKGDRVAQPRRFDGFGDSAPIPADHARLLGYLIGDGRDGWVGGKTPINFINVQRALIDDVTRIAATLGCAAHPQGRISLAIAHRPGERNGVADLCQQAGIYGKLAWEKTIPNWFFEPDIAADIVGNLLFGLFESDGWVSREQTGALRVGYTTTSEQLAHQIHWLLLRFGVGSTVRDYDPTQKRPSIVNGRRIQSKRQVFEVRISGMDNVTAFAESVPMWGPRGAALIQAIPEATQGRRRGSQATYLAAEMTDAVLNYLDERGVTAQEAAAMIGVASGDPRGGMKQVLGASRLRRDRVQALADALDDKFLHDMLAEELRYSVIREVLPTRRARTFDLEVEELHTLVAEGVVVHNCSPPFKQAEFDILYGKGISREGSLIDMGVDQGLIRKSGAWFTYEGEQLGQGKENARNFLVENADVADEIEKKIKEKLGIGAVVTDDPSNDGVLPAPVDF", "assay": "Fluorescence Cell-Free Homogeneous Dose Retest to Identify Inhibitors of RecA-Intein Splicing Activity. [Related pubchem assays (depositor defined):AID2097, AID2223, AID489010, AID492950]", "format": "functional"}}, "note": "Active and inactive are the calls of the source.", "data": [{"smiles": "N=C(N)Nc1nc(C2COc3ccccc3O2)cs1", "note": "(configuration not stated)", "values": [{"measurement": "IC50", "setting": "[1]", "value": "12.6 µM (active)"}]}, {"smiles": "CCOC(=O)c1cc(NC(=O)c2ccoc2C)cc(C(=O)OCC)c1", "values": [{"measurement": "IC50", "setting": "[1]", "value": "14.5 µM (active)"}]}, {"smiles": "Cc1onc(-c2ccccc2)c1C(=O)NNC(=S)NC(=O)c1ccc(Cl)cc1Cl", "values": [{"measurement": "EC50", "setting": "[2]", "value": "0.441 µM (active)"}, {"measurement": "EC50", "setting": "Streptococcus", "value": "1.8 µM (active)"}, {"measurement": "EC50", "setting": "[3]", "value": "1.88 µM (active)"}, {"measurement": "IC50", "setting": "Vero [4]", "value": "22.7 µM (active)"}, {"measurement": "CC50", "setting": "Vero [5]", "value": "> 25 µM (active)"}]}, {"smiles": "CCN1CCN(c2nc(-c3cccnc3)nc3ccccc23)CC1", "values": [{"measurement": "EC50", "setting": "[6]", "value": "> 50 µM (not active)"}]}, {"smiles": "CN1CCN(C(=O)CCCN2C(=O)/C(=C/c3ccccc3)SC2=S)CC1", "values": [{"measurement": "IC50", "setting": "[1]", "value": "13.5 µM (active)"}]}, {"smiles": "Cc1oc(-c2ccccc2)cc1C(=O)Nc1cccc(/C=C\\C(=O)O)c1", "values": [{"measurement": "IC50", "setting": "[1]", "value": "11.2 µM (active)"}]}, {"smiles": "CCn1c(CCNC(=O)c2ccc(Cl)cc2)nnc1SCC(=O)NC1CCCC1", "values": [{"measurement": "EC50", "setting": "[6]", "value": "> 50 µM (not active)"}]}, {"smiles": "CCOC(=O)C1(c2ccccc2)CCN(CCC(=O)Nc2ccccc2OC)CC1", "values": [{"measurement": "EC50", "setting": "[3]", "value": "1.88 µM (active)"}]}, {"smiles": "CCN(Cc1ccc(OC)c(F)c1)C(=O)CCl", "values": [{"measurement": "AC50", "setting": "[7]", "value": "3.36 µM (active)"}, {"measurement": "AC50", "setting": "[8]", "value": "162 µM (active)"}, {"measurement": "EC50", "setting": "Protein RecA", "value": "5.37 µM (active)"}]}, {"smiles": "COc1ccc2c(c1O)[C@]13CCN(C)[C@H](C2)[C@@H]1CCC(=O)C3", "values": [{"measurement": "EC50", "setting": "[3]", "value": "0.0427 µM (active)"}]}, {"smiles": "Cc1ccc2c(c1)[C@H]1OCC[C@H]1[C@@H](c1ccncc1)N2", "values": [{"measurement": "EC50", "setting": "[6]", "value": "> 10 µM (not active)"}]}]}
